According to ChEMBL document CHEMBL1151663, “Further explorations of unnatural alkaloids” (J Nat Prod, 1985):
Activity calls are given as the source filed them. No cut-off for these calls is given here.

How the values were obtained:
[1] = target: T1, MAO-B (amine oxidase [flavin-containing] B) (Homo sapiens, UniProt P27338); assay: Inhibition of human liver MAOB at 1 mM relative to MPTP
T1 sequence (P27338 whole entry): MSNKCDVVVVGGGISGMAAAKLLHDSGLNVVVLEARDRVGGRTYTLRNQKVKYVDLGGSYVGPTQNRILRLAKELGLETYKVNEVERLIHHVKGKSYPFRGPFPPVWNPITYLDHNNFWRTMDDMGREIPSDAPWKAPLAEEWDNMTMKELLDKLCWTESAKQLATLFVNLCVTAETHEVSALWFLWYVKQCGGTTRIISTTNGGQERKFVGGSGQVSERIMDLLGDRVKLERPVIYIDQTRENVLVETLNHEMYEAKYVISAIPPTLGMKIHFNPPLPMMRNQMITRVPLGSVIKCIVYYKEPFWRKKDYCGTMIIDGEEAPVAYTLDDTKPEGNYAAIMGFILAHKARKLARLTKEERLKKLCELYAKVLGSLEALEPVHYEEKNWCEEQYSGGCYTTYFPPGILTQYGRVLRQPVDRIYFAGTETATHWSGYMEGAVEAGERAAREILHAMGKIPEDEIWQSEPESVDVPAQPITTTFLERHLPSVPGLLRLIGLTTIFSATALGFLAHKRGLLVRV

[2] = target: T2, Amine oxidase [flavin-containing] B (Homo sapiens, UniProt P27338); assay: Activity of human liver MAOB assessed as specific activity at 1 mM; settings: 1000 µM
T2 sequence (P27338 whole entry): T1 sequence (P27338 whole entry)

Rattus norvegicus = species: Rattus norvegicus; assay: Displacement of [3H]colchicine from rat brain tubulin at 25 uM
[3] = Toxicity in intramuscular dosed mouse; type: organism-based; settings: in vivo, im
Mus musculus = species: Mus musculus; assay: Analgesic activity in mouse by hot plate test; type: functional, organism-based

Structure (SMILES)	Activity [2] [nmol/min/mg]	further results
C1=C(c2ccccc2)CCNC1	58.6	inhibition at 1000 µM [1]: 68.8%
CN1CC=C(c2ccccc2)CC1	85.2	inhibition at 1000 µM [1]: 100%
C/C=C/C(=O)N[C@H]1CCc2cc(OC)c(OC)c(OC)c2-c2ccc(OC)c(=O)cc21	–	inhibition (Rattus norvegicus): 67%; LD50 [3]: 3.4 µmol/kg
CN1CC=CC(c2ccccc2)C1 (centres undefined)	< 5	–
COc1cc2c(c(OC)c1OC)-c1ccc(OC)c(=O)cc1[C@@H](NC(C)=O)CC2 [COLCHICINE]	–	LD50 [3]: 3 µmol/kg
CN1CC[C@@]2(C)c3cc(O)ccc3N(C)[C@@H]12	–	Activity (Mus musculus): Active
CN1CC=C(c2ccc(Cl)cc2)CC1	5.8	inhibition at 1000 µM [1]: 6.8%
C1=C(c2ccccc2)CCN(CC2CC2)C1	< 5	–
CCN1CC=C(c2ccccc2)CC1	8.82	inhibition at 1000 µM [1]: 10.4%
CN1CCC=C(c2ccccc2)C1	< 5	–
C1=C(c2ccccc2)CCN(Cc2ccccc2)C1	< 5	–
CCCN1CC=C(c2ccccc2)CC1	< 5	–
CCCC(=O)N[C@H]1CCc2cc(OC)c(OC)c(OC)c2-c2ccc(OC)c(=O)cc21	–	inhibition (Rattus norvegicus; tested as the 2H-labelled form): 79%
CCCCN1CC=C(c2ccccc2)CC1	< 5	–
C=CC(=O)N[C@H]1CCc2cc(OC)c(OC)c(OC)c2-c2ccc(OC)c(=O)cc21	–	inhibition (Rattus norvegicus): 82%; LD50 [3]: 17.4 µmol/kg
CC1=C(c2ccccc2)CCN(C)C1	5.3	inhibition at 1000 µM [1]: 6.2%
C=CCN1CC=C(c2ccccc2)CC1	< 5	–
CC(C)N1CC=C(c2ccccc2)CC1	< 5	–
CN1CC[C@]2(C)c3cc(O)ccc3N(C)[C@H]12	–	Activity (Mus musculus): inactive
CC1CN(C)CC=C1c1ccccc1 (centres undefined)	11.4	inhibition at 1000 µM [1]: 13.4%
CN1CC=C(c2ccc(O)cc2)CC1	< 5	–
